Test results from patent US11497819B2, “PSMA ligands for imaging and endoradiotherapy” (priority 2017, dated 2022).
Where “and” joins values, the source holds several entries; their conditions need not be identical. Equal entries are not always repeated. Where two headings read alike, the source gives them in different places. One block for each molecule: values may come before it.

How the values were obtained:
LNCaP cells [1] = test: Internalization into LNCaP cells, relative cellular uptake to ([^125I]I-BA)KuE; type: cell-based; conditions: c = 1.0 nM ^177Lu-labeled inhibitor, 37° C., 60 min, corrected for non-specific binding (10 μM 2-PMPA), mean ± SD (n = 3)
Protocol: PSMA-positive LNCAP cells (300265; Cell Lines Service GmbH) were cultivated in Dulbecco modified Eagle medium/Nutrition Mixture F-12 (1/1) (DMEM-F12, Biochrom) supplemented with fetal calf serum (FCS) (10%, Biochrom) and kept at 37° C. in a humidified CO2 atmosphere (5%). One day (24 h±2 h) prior to all experiments with LNCaP cells, the cultivated cells were harvested using a mixture of trypsin/ethylendiaminetetraacetate (0.05%/0.02%) and PBS and centrifuged. After centrifugation, the supernatant was disposed and the cell pellet resuspended in culture medium. Afterwards, cells were counted with a hemocytometer (Neubauer) and seeded in 24-well plates.
Subsequent to the removal of the culture medium, the cells were washed once with DMEM-F12-solution (500 μL, 5% BSA) and left to equilibrate for at least 15 min at 37° C. in DMEM-F12-solution (200 μL, 5% BSA). Afterwards, each well was treated with either DMEM-F12-solution (25 μL, 5% BSA) or 2-PMPA-solution (25 μL, 100 μm) for blockade. […] The experiment was terminated by placing the 24-well plate on ice for 3 min and the consecutive removal of the medium. Each well was rinsed with HBSS (250 μL) and the fractions from these first two steps combined, representing the amount of free radioligand. Removal of surface bound activity was accomplished by incubation of the cells with ice-cold 2-PMPA-solution (250 μL, 10 μm in PBS) for 5 min and subsequent rinsing with ice-cold PBS (250 μL). The internalized activity was determined through incubation of the cells in NaOH (250 μL, 1.0 m) and the combination with the fraction of the subsequent washing step with again NaOH (250 μL, 1.0 m). Each experiment (control and blockade) was performed in triplicate for each time point. Free, surface bound and internalized activity was quantified in a γ-counter.

[2] = Lipophilicity, logP in n-octanol/PBS of radiolabeled PSMA inhibitors; type: physicochemical; conditions: pH 7.4
Protocol: The radiolabeled PSMA inhibitor (0.5 to 1.0 MBq) dissolved in PBS (500 μL, pH=7.4), was added to n-octanol (500 μL) in a reaction vial (1.5 mL), which was rigorously vortexed for 3 min (n=6). For quantitative phase separation, the mixture was centrifuged at 6,000 g for 5 min (Biofuge 15, Heraus Sepatech, Osterode, Germany). The activity from samples of each phase (100 μL) were measured in a γ-counter to obtain the log P(o/w) value.

LNCaP cells [3] = test: Externalization kinetics / cell retention in LNCaP cells; type: cell-based; conditions: 60 min incubation, ^177Lu-labeled
Protocol: FIG. 2: Externalization kinetics of selected ^177Lu-labeled PSMA inhibitors from LNCaP cells. […] Then, the supernatant was removed and once washed with DMEM-solution (5% BSA, 37° C.). Afterwards, either A) only DMEM-solution (5% BSA) or B) blockade DMEM-solution (5% BSA, 10 μm 2-PMPA) were added for replacement. The total cellular internalized activity at t=0 min was corrected for non-specific binding (10 μm 2-PMPA) and normalized to 100%. All data are expressed as mean±SD (n=3).
Externalization kinetics of the radiolabeled PSMA inhibitors were determined using LNCaP cells, which were similarly prepared as described for the internalization assay. After an initial cell-washing step with DMEM-F12-solution (5% BSA), the cells were left to recondition for at least 15 min at 37° C. Subsequently, the LNCaP cells were incubated with the respective radiolabeled peptide (25 μL, 10.0 nm) at 37° C. for 60 min in a total volume of 250 μL in each well. After 60 min, the supernatant with the unbound free fraction was removed and measured in a γ-counter for the calculation of total added radioactivity. An acid wash step was avoided to warrant enzyme integrity during the following externalization and recycling study. To determine the recycling rate, fresh DMEM-F12-solution (250 μL, 5% BSA) was given to the cells to allow re-internalization. In contrast, re-internalization was inhibited by addition of DMEM-F12-solution containing 2-PMPA (225 μL DMEM-F12 (5% BSA) and 25 μL of 100 μm 2-PMPA-solution (PBS)). The cells were then incubated for 0, 20, 40 and 60 min at 37° C. Consequently, the supernatant was removed and the cells were washed with ice-cold HBSS (250 μL). The combination of the supernatant and the volume of the concomitant washing step with HBSS (200 μL) account for externalized radioligand at the investigated time point. Further, the cells were then washed with ice-cold 2-PMPA HBSS solution (250 μL, 10 μm) twice, combined and thus represented the fraction of membrane-bound radioligand. The determination of the internalized fraction was achieved by lysis as described for the internalization assay with NaOH (250 μL, 1.0 m). The activities of free, externalized, membrane-bound and internalized radioligand were quantified in a γ-counter.

LNCaP-tumor xenograft = test: Biodistribution in LNCaP-tumor xenograft bearing CB-17 SCID mice; type: in vivo
Protocol: All animal experiments were carried out in accordance with the general animal welfare regulations in Germany (Deutsches Tierschutzgesetz, approval #55.2-1-54-2532-71-13). For the tumor model, LNCaP cells (approx. 10^7 cells) were suspended in serum-free DMEM-F12 medium and Matrigel (1/1; v/v) (BD Biosciences, Germany) and inoculated onto the right shoulder of male, 6 to 8 weeks old CB-17 SCID mice (Charles River Laboratories, Sulzfeld, Germany). Animals were used after the tumor size reached 4 to 8 mm in diameter for experiments.

HSA = molecular target: T1, HSA (Homo sapiens, UniProt P02768); test: HSA binding on Chiralpak HSA column; type: in vitro ADME; conditions: human, 0.5 mg/mL
T1 construct: purchased Daicel Chemical Industries / Chiral Technologies Europe (Illkirch, France)
T1 sequence (P02768 25-609): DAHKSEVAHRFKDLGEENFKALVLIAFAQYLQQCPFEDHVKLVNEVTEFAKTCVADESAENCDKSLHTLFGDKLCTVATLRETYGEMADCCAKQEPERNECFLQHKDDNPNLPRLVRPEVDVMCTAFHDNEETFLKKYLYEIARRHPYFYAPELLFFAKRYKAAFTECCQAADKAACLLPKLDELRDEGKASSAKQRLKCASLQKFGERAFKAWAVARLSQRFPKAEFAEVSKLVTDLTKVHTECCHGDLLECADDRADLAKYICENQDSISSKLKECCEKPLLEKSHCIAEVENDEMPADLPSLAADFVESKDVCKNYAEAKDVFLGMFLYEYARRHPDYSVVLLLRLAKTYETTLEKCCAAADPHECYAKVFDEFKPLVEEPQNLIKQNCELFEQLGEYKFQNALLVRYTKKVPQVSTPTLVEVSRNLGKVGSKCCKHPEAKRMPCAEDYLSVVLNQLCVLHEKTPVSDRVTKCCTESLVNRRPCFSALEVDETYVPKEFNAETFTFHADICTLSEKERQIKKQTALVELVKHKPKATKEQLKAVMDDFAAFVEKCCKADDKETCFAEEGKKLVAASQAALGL
Protocol: HSA binding experiments were performed as previously described. […] For each run, 10 μL of the solution containing the inhibitor was injected into the RP-HPLC system and the retention time measured. […] Non-linear regression was established with OriginPro 2016G.

[4] = 1 h p.i., ^177Lu-labeled, n = 4
[5] = 1 h p.i., ^177Lu-labeled, n = 4, listed as [^177Lu]PSMA I&T
[6] = 24 h p.i., ^177Lu-labeled, n = 4
[7] = male, CB-17 SCID, mouse, in vivo, 1 h
[8] = male, CB-17 SCID, mouse, in vivo, 24 h

- logP ([2]; distribution coefficient in n-octanol/PBS, radiolabeled inhibitor, mean ± SD (n = 6), read-out: logP): -4.12 ± 0.11
- adrenal gland (LNCaP-tumor xenograft; [4]): 6.25 ± 2.59 % ID/g
- blood (LNCaP-tumor xenograft; [4]): 0.37 ± 0.10 % ID/g
- bone (LNCaP-tumor xenograft; [4]): 0.14 ± 0.04 % ID/g
- brain (LNCaP-tumor xenograft; [4]): 0.03 ± 0.01 % ID/g
- heart (LNCaP-tumor xenograft; [4]): 0.58 ± 0.15 % ID/g
- intestine (LNCaP-tumor xenograft; [4]): 0.59 ± 0.50 % ID/g
- liver (LNCaP-tumor xenograft; [4]): 0.37 ± 0.10 % ID/g
- lung (LNCaP-tumor xenograft; [4]): 1.32 ± 0.45 % ID/g
- muscle (LNCaP-tumor xenograft; [4]): 0.18 ± 0.07 % ID/g
- pancreas (LNCaP-tumor xenograft; [4]): 1.30 ± 1.39 % ID/g
- spleen (LNCaP-tumor xenograft; [4]): 13.8 ± 4.59 % ID/g
- stomach (LNCaP-tumor xenograft; [4]): 0.29 ± 0.06 % ID/g
- tumor (LNCaP-tumor xenograft; [5]): 4.7±1.0 % ID/g and 4.69±0.95 % ID/g
- adrenal g. (LNCaP-tumor xenograft; [6]): 1.06 ± 0.24 % ID/g
- blood (LNCaP-tumor xenograft; [6]): 0.012 ± 0.01 % ID/g
- bone (LNCaP-tumor xenograft; [6]): 0.01 ± 0.01 % ID/g
- brain (LNCaP-tumor xenograft; [6]): 0.02 ± 0.01 % ID/g
- heart (LNCaP-tumor xenograft; [6]): 0.05 ± 0.03 % ID/g
- intestine (LNCaP-tumor xenograft; [6]): 0.12 ± 0.06 % ID/g
- liver (LNCaP-tumor xenograft; [6]): 0.05 ± 0.01 % ID/g
- lung (LNCaP-tumor xenograft; [6]): 0.16 ± 0.03 % ID/g
- muscle (LNCaP-tumor xenograft; [6]): 0.01 ± 0.01 % ID/g
- pancreas (LNCaP-tumor xenograft; [6]): 0.05 ± 0.02 % ID/g
- spleen (LNCaP-tumor xenograft; [6]): 1.94 ± 1.01 % ID/g
- stomach (LNCaP-tumor xenograft; [6]): 0.05 ± 0.02 % ID/g
- tumor (LNCaP-tumor xenograft; 24 h p.i., ^177Lu-labeled, n = 4, listed as [^177Lu]PSMA I&T): 4.06±1.12 % ID/g
SMILES: O=C(O)CC[C@H](NC(=O)N[C@@H](CCCCNC(=O)CCCCCCC(=O)NCCCC[C@@H](NC(=O)[C@@H](Cc1ccccc1)NC(=O)[C@@H](Cc1ccc(O)c(I)c1)NC(=O)CCC(C(=O)O)N1CCN(CC(=O)O)CCN(CC(=O)O)CCN(CC(=O)O)CC1)C(=O)O)C(=O)O)C(=O)O (some centres unmarked) [PSMA I&T, DOTAGA-y(3-I)fk(Sub-KuE), reference compound]
- Internalization (LNCaP cells [1]; listed as [^177Lu]PSMA I&T): 75.5±1.6%
- Internalization (LNCaP cells [1]; listed as [^nat/177Lu]PSMA I&T): 75.5 ± 1.6%
- in vitro tumor cell retention (LNCaP cells [3]): 62.8±0.4%
- kidney (LNCaP-tumor xenograft; [5]): 128.9±10.7 % ID/g and 128.90 ± 10.74 % ID/g

- logP [2]: -4.12 ± 0.05
- adrenal gland (LNCaP-tumor xenograft; [7]): 1.92 ± 0.80 % ID/g
- blood (LNCaP-tumor xenograft; [7]): 0.52 ± 0.03 % ID/g
- bone (LNCaP-tumor xenograft; [7]): 0.30 ± 0.08 % ID/g
- brain (LNCaP-tumor xenograft; [7]): 0.03 ± 0.01 % ID/g
- heart (LNCaP-tumor xenograft; [7]): 0.58 ± 0.06 % ID/g
- intestine (LNCaP-tumor xenograft; [7]): 0.49 ± 0.25 % ID/g
- liver (LNCaP-tumor xenograft; [7]): 0.37 ± 0.04 % ID/g
- lung (LNCaP-tumor xenograft; [7]): 0.87 ± 0.11 % ID/g
- muscle (LNCaP-tumor xenograft; [7]): 0.12 ± 0.03 % ID/g
- pancreas (LNCaP-tumor xenograft; [7]): 0.18 ± 0.05 % ID/g
- spleen (LNCaP-tumor xenograft; [7]): 4.62 ± 1.81 % ID/g
- stomach (LNCaP-tumor xenograft; [7]): 0.51 ± 0.2 % ID/g
- tumor (LNCaP-tumor xenograft; [7]): 8.00 ± 0.78 % ID/g
- tumor/blood (LNCaP-tumor xenograft; [7]): 15.4
- tumor/kidney (LNCaP-tumor xenograft; [7]): 0.08
- tumor/muscle (LNCaP-tumor xenograft; [7]): 66.7
- adrenal g. (LNCaP-tumor xenograft; [8]): 0.04 ± 0.02 % ID/g
- blood (LNCaP-tumor xenograft; [8]): 0.004 ± 0.001 % ID/g
- bone (LNCaP-tumor xenograft; [8]): 0.04 ± 0.006 % ID/g
- brain (LNCaP-tumor xenograft; [8]): 0.01 ± 0.006 % ID/g
- heart (LNCaP-tumor xenograft; [8]): 0.02 ± 0.01 % ID/g
- intestine (LNCaP-tumor xenograft; [8]): 0.03 ± 0.02 % ID/g
- liver (LNCaP-tumor xenograft; [8]): 0.17 ± 0.07 % ID/g
- lung (LNCaP-tumor xenograft; [8]): 0.03 ± 0.02 % ID/g
- muscle (LNCaP-tumor xenograft; [8]): 0.007 ± 0.001 % ID/g
- pancreas (LNCaP-tumor xenograft; [8]): 0.01 ± 0.002 % ID/g
- spleen (LNCaP-tumor xenograft; [8]): 0.09 ± 0.06 % ID/g
- stomach (LNCaP-tumor xenograft; [8]): 0.03 ± 0.01 % ID/g
- t/blood (LNCaP-tumor xenograft; [8]): 1925.0
- t/kidney (LNCaP-tumor xenograft; [8]): 1.5
- t/liver (LNCaP-tumor xenograft; [8]): 45.3
- t/muscle (LNCaP-tumor xenograft; [8]): 1100.0
- tumor (LNCaP-tumor xenograft; [8]): 7.70 ± 1.35 % ID/g
- HSA (albumin binding) (HSA): >91.0%
SMILES: Nc1ccc(C[C@H](NC(=O)CCC(C(=O)O)N2CCN(CC(=O)O)CCN(CC(=O)O)CCN(CC(=O)O)CC2)C(=O)N[C@H](Cc2ccc(O)cc2)C(=O)N[C@H](Cc2ccc3ccccc3c2)C(=O)N[C@H](CCCCNC(=O)[C@@H](CC(=O)NCCC[C@@H](NC(=O)CC[C@H](NC(=O)N[C@@H](CCC(=O)O)C(=O)O)C(=O)O)C(=O)O)NC(=O)c2cc(C(=O)O)cc(C(=O)O)c2)C(=O)O)cc1 (some centres unmarked) [PSMA-62, DOTAGA-F(4-NH2)y-2-nal-k(d[N^5-orn-C^4-EuE]-TMA)]
- Internalization (LNCaP cells [1]; listed as [^177Lu]PSMA-62): 343.9%
- Internalization (LNCaP cells [1]; listed as [^nat/177Lu]PSMA-62): 343.9 ± 6.0%
